Laboratory results reported in patent US20160176867A1, “MODIFIED BET-PROTEIN-INHIBITING DIHYDROQUINOXALINONES AND DIHYDROPYRIDOPYRAZINONES” (BAYER PHARMA AKTIENGESELLSCHAFT, priority 2013, published 2016).
pIC50: −log10 of the molar value.

Columns and labels:
[1] = test system: B16F10 cells; assay: Cell proliferation assay (alamarBlue), B16F10; format: cell-based; conditions: Mus musculus, B16-F10; B16F10 (melanoma, BRAF wild-type), 96 hours
Outline: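 B16F10 cells in DMEM with 10% FCS were exposed to seven concentrations from 1E-5 to 1E-8 M for 96 hours at 37 °C. Viability was read with alamarBlue (ex 530/em 590 nm), and day-0 signal was subtracted. IC50 was derived relative to buffer-treated cells.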

[2] = target: T1, BRD4 bromo domain 1 [BRD4(1)] (Homo sapiens, UniProt O60885); assay: BRD4/acetylated peptide H4 binding assay (TR-FRET), BRD4 bromo domain 1; conditions: inhibition of BRD4(1)/Ac-H4 peptide interaction
T1 construct: N-terminally His6-tagged BRD4(1) (amino acids 67-152); made in house; host or cells: E. coli
Outline: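 TR-FRET (665/620 nm ratio) measuring displacement of biotinylated tetra-acetylated H4 peptide from His6-BRD4(1) (aa 67-152, E. coli; typically 10 nM) at pH 7.5. Compound (11 concentrations, 0.1 nM–20 μM, duplicates) was preincubated 10 min at 22°C, then 1 h at 22°C and ≥3 h at 4°C; IC50 from 4-parameter fit normalized to DMSO and no-BRD4 controls.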

Compound | pIC50 [1] | pIC50 [2]
COc1ccc(C(=O)NC2CCN(C)CC2)cc1Nc1ccc2c(n1)N(C1CCOCC1)[C@H](C)C(=O)N2C [Example 16, 3-{[(3R)-1,3-Dimethyl-2-oxo-4-(tetrahydro-2H-pyran-4-yl)-1,2,3,4-tetrahydropyrido[2,3-b]pyrazin-6-yl]amino}-4-methoxy-N-(1-methylpiperidin-4-yl)benzamide] | 5.94 | 6.63
C[C@@H]1C(=O)N(C)c2ccc(Nc3cccc(S(=O)(=O)N4CCN(C)CC4)c3)nc2N1C1CCN(C)CC1 [Example 50, (3R)-1,3-dimethyl-6-({3-[(4-methylpiperazin-1-yl)sulphonyl]phenyl}-amino)-4-(1-methyl-piperidin-4-yl)-3,4-dihydropyrido[2,3-b]pyrazin-2(1H)-one] | 6.14 | 7.12
CC(C)N1c2nc(Nc3cccc(C(=O)N4CCN(C)CC4)c3)ccc2N(C)C(=O)[C@H]1C [Example 77, (3R)-4-isopropl-1,3-dimethyl-6-({3-[(4-methylpiperazin-1-yl)carbonyl]phenyl}-amino)-3,4-dihydro-pyrido[2,3-b]pyrazin-2(1H)-one] | 6.01 | 6.84

The next compounds have a higher pIC50 [1] than those just listed; values first:

pIC50 [1] | pIC50 [2] | Compound
7.15 | 7.57 | C[C@@H]1C(=O)N(C)c2ccc(Nc3cccc(S(=O)(=O)N(C)C)c3)nc2N1C1CCOCC1 [Example 6, 3-{[(3R)-1,3-Dimethyl-2-oxo-4-(tetrahydro-2H-pyran-4-yl)-1,2,3,4-tetrahydropyrido[2,3-b]pyrazin-6-yl]amino}-N,N-dimethylbenzenesulphonamide]
6.75 | 7.34 | C[C@@H]1C(=O)N(C)c2ccc(Nc3cccc(S(=O)(=O)N(C)C)c3)cc2N1C1CCOCC1 [Example 7, 3-{[(3R)-1,3-Dimethyl-2-oxo-4-(tetrahydro-2H-pyran-4-yl)-1,2,3,4-tetrahydroguinoxalin-6-yl]amino}-N,N-dimethylbenzenesulphonamide]
7.11 | 7.55 | C[C@@H]1C(=O)N(C)c2ccc(Nc3cccc(S(=O)(=O)N4CCOCC4)c3)nc2N1C1CCOCC1 [Example 9, (3R)-1,3-Dimethyl-6-{[3-(morpholin-4-ylsulphonyl)phenyl]amino}-4-(tetrahydro-2H-pyran-4-yl)-3,4-dihydropyrido[2,3-b]pyrazin-2(1H)-one]
